Laboratory results taken from PMC6935304 (International Journal of Nanomedicine, 2019).
Read-outs that look alike come from different tables or passages of the source.

What was measured:
[1] = tested on: CSE; experiment: Immunoblot of CSE expression in hearts of heart failure rats; type: in vivo; details: rat heart, 6 weeks after myocardial infarction
[2] = tested on: plasma proteins; details: rat; cited from earlier work
[3] = In vitro drug release by dialysis against PBS, HPLC; type: physicochemical; details: room temperature
[4] = tested on: plasma proteins; details: human; cited from earlier work
[5] = tested on: plasma proteins; details: dog; cited from earlier work

S-propargyl-cysteine [ZYZ-802]
CSE expression relative to HF group or DP-LP group [1]: 1.6 times | Binding rate to plasma proteins [2]: very low | Time to release from the dialysis tubing [3]: ≤ 30 min | Binding rate to plasma proteins [4]: very low | Binding rate to plasma proteins [5]: very low
